Measurements reported in patent publication US20230043863A1, “HETEROAROMATIC DERIVATIVES FOR USE AS REGULATOR, PREPARATION METHOD THEREFOR AND USE THEREOF” (JIANGSU HANSOH PHARMACEUTICAL GROUP CO., LTD., priority 2018, published 2023).

Key:
[1] = target: JAK1 (Homo sapiens, UniProt P23458); test: JAK kinase activity inhibition, TR-FRET (JAK1); type: biochemical; settings: TR-FRET kinase assay
Experimental: (§1) Experimental objective: The objective of this test is to test the inhibitory effect of the compound on JAK kinase activity.
(§2) Experimental method: the fluorescence resonance energy transfer (TR-FRET) method was used to test the inhibitory effect of the compound on JAK kinase activity, and the half inhibitory concentration IC50 of the compound on JAK kinase activity was obtained.
(§3) Kinase reaction was carried out in a white 384-well plate (PerkinElmer). 1-5 μL of different concentrations of the compound diluted with DMSO and ddH2O was added into each well, and 1-5 μL of the corresponding solvent was added to the positive control wells, followed by addition of 0.1-20 nM JAK kinase solution diluted with 1-5 μL of kinase buffer (HEPES 50-250 mM, MgCl2 5-20 mM, etc.) was added to each well. 1-5 μL of kinase buffer was added to the negative control well. 1-5 μL of substrate mixture containing peptide substrate and ATP was added. The plate was incubated at room temperature for 0.5-5 hours. […], EDTA and detection solution containing labeled antibody was added, and then the plate was incubated at room temperature for another 1-24 hours. The fluorescence signal value at about 620 nm and 665 nm of each well was measured by BioTek Synergy H1 plate reader, and the inhibition rate was calculated by the fluorescence signal value. According to the inhibition rate of different concentrations, the IC50 of the compound was obtained by curve fitting.
(§4) The percentage inhibition data of the wells treated with the compound was calculated with the positive control wells (DMSO control wells) and negative control wells (no kinase added) on the plate {% inhibition rate=100-[(test compound value-negative control value)]/(Positive control value-negative control value)×100}. IC50 value was calculated by using GraphPad prism to fit the data of different concentrations and corresponding percentage inhibition rates to a 4-parameter non-linear logic formula.

[2] = target: TYK2 (Homo sapiens, UniProt P29597); test: JAK kinase activity inhibition, TR-FRET (TYK2); type: biochemical; settings: TR-FRET kinase assay
Experimental: as §1, §2, §3, §4

[3] = system: JAK-STAT signal pathway of U266 cells; test: Inhibition of cellular JAK-STAT signal pathway (STAT3 phosphorylation) in U266 cells; type: cell-based, human; settings: Homo sapiens, U-266, INF-a 1000 U/mL stimulation
Experimental: The objective of the test is to test the inhibitory activity of the compound on the cellular JAK-STAT signaling pathway.
U266 cell line was used in this experiment, by activating the JAK-STAT signaling pathway through INF-a stimulation, the inhibitory activity of the compound on its downstream STAT3 phosphorylation was detected, and the half inhibitory concentration IC50 of the compound on the JAK-STAT signaling pathway activity was obtained.
3-12 μL of U266 cell line was spread into the 384-well detection plate, and the number of cells in each well was 100-300 K, followed by addition of 2 μL of the compound solution serially diluted. The plate was incubated for 2 hours with shaking at 350 rpm at room temperature. After 2 hours, 2 μL of INF-a with a final concentration of 1000 U/mL was added. The plate was shaken at room temperature for 15 minutes. 2-5 μL (5×) LANCE Ultra Lysis Buffer 2 solution was added and the plate was shaken at room temperature for 2 hours. After 2 hours, 5 μL of LANCE Ultra Eu-labeled Anti-STAT3 Antibody (PerkinElmer) with a final concentration of 0.5 nM and LANCE Ultra ULight-labeled Anti-STAT3 Antibody (PerkinElmer) with a final concentration of 5 nM were added, and the plate was incubated overnight at room temperature. The fluorescence signal value at 665 nm of each well was measured with the microplate reader, and the inhibition rate was calculated from the fluorescence signal value. According to the inhibition rate of different concentrations, the IC50 of the compound was obtained by curve fitting.
as §4

JAK1, sequence (P23458 whole entry): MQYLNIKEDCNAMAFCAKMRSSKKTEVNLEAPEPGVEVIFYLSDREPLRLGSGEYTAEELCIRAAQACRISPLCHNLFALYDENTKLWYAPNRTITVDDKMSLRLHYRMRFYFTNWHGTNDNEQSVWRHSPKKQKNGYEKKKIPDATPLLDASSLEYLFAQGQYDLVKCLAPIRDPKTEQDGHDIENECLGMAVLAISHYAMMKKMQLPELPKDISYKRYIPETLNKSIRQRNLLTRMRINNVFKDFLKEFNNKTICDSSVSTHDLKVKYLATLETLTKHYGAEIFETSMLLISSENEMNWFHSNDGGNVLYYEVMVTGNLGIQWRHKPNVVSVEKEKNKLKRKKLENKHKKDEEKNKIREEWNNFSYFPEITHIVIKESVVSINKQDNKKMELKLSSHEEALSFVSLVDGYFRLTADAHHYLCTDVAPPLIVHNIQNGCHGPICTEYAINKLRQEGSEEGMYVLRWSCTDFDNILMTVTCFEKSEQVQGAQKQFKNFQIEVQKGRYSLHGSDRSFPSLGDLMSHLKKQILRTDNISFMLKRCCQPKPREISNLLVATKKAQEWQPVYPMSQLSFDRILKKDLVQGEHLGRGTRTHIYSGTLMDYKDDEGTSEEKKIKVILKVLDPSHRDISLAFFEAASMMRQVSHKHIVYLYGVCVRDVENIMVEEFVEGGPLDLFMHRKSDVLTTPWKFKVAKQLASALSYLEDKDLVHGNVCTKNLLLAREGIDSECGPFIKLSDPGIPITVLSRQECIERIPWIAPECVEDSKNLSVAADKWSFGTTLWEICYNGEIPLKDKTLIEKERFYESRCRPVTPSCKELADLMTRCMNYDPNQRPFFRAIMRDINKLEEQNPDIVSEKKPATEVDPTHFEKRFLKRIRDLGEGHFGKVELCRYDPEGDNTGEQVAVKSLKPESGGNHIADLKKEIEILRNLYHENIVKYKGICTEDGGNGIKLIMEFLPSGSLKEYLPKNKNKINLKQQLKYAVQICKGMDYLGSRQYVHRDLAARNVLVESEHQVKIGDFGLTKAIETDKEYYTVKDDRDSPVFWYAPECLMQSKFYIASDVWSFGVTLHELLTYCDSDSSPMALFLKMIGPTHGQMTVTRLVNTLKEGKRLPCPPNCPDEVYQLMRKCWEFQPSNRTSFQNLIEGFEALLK
TYK2, sequence (P29597 whole entry): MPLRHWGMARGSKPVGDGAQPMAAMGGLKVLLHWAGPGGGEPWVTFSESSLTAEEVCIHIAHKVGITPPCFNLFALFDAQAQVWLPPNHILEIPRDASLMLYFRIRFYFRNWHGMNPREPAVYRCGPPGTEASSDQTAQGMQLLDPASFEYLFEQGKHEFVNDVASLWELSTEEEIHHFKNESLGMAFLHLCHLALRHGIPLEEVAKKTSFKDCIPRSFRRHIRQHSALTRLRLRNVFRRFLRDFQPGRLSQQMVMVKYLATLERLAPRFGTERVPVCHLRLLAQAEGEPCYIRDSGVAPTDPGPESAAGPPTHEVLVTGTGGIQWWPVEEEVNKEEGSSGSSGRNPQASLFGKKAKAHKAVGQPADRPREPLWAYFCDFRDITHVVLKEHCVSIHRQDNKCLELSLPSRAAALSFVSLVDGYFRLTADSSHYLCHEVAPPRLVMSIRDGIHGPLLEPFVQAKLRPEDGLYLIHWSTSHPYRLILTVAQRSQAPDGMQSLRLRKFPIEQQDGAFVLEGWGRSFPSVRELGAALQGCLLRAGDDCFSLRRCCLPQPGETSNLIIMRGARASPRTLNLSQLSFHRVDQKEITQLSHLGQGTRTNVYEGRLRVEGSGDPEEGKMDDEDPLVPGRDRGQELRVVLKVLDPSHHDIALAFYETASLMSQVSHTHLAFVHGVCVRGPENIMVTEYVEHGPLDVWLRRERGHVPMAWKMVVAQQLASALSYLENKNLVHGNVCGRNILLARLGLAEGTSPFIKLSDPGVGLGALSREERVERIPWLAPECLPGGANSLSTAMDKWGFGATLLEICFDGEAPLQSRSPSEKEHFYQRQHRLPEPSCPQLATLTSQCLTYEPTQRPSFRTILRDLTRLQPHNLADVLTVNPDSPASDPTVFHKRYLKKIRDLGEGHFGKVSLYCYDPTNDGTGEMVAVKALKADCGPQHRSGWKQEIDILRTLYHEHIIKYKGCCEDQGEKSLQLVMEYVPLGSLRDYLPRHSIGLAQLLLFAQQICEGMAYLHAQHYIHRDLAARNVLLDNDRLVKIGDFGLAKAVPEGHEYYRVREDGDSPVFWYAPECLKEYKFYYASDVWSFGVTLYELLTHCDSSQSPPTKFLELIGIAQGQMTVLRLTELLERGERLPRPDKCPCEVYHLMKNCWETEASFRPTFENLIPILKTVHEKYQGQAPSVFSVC

| IC50 [1] [nM] | IC50 [2] [nM] | Structure (SMILES) | IC50 [3] [nM] |
| --- | --- | --- | --- |
| 3.55 | 2.09 | COCCS(=O)(=O)N1[C@@H]2CC[C@H]1C[C@H](Nc1nc(Nc3cc(C)[nH]n3)c3ccccc3n1)C2 [Embodiment 233, N2-((3-exo)-8-((2-methoxylethyl)sulfonyl)-8-azabicyclo[3.2.1]oct-3-yl)-N4-(5-methyl-1H-pyrazol-3-yl)quinazolin-2,4-diamine] |  |
| 112 | 7.11 | Cc1cc(Nc2nc(N[C@@H]3C[C@H]4CC[C@@H](C3)N4CCF)nc3ccccc23)n[nH]1 [Embodiment 234] |  |
| 8.81 | 4.77 | CN(c1nc(Nc2cc(CO)[nH]n2)c2ccc(Cl)cc2n1)[C@@H]1C[C@H]2CC[C@@H](C1)N2CCC#N [Embodiment 236, 3-((3-exo)-3-((7-chloro-4-((5-(hydroxymethyl)-1H-pyrazol-3-yl)amino)quinazolin-2-yl)(methyl)amino)-8-azabicyclo[3.2.1]oct-8-yl)propionitrile] |  |
| 1.88 | 0.28 | Cc1cc(Nc2nc(N[C@@H]3C[C@H]4CC[C@@H](C3)N4C(=O)[C@@H]3CCCN3)nc3sccc23)n[nH]1 [Embodiment 249, ((3-exo)-3-((4-((5-methyl-1H-pyrazol-3-yl)amino)thieno[2,3-d]pyrimidin-2-yl)amino)-9-azabicyclo[3.3.1]non-9-yl) ((S)-pyrrolidin-2-yl)methanone] |  |
| 10.5 | 10.2 | Cc1cc(Nc2nc(N[C@@H]3C[C@H]4CC[C@@H](C3)N4S(=O)(=O)c3ccccn3)nc3sccc23)n[nH]1 [Embodiment 266, N4-(5-methyl-1H-pyrazol-3-yl)-N2-((3-exo)-8-(pyridin-2-ylsulfonyl)-8-azabicyclo[3.2.1]oct-3-yl)thieno[2,3-d]pyrimidin-2,4-diamine] |  |
| 3.22 | 3.08 | Cc1cc(Nc2nc(N[C@@H]3C[C@H]4CCC[C@@H](C3)N4S(=O)(=O)c3nccn3C)nc3sccc23)n[nH]1 [Embodiment 269] |  |
| 0.06 | 14 | Cc1cc(Nc2nc(N[C@@H]3C[C@H]4CC[C@@H](C3)N4S(=O)(=O)N3CC(C#N)C3)nc3cc(C)sc23)n[nH]1 [Embodiment 286, 1-(((3-exo)-3-((6-methyl-4-((5-methyl-1H-pyrazol-3-yl)amino)thieno[3,2-d]pyrimidin-2-yl)amino)-8-azabicyclo[3.2.1]oct-8-yl)sulfonyl)azetindin-3-formonitrile] |  |
| 5.11 | 14.7 | Cc1cc(Nc2nc(N[C@@H]3C[C@@H]4CN(CCC#N)C[C@@H]4C3)nc3ccccc23)n[nH]1 [Embodiment 300, 3-(cis-5-((4-((5-methyl-1H-pyrazol-3-yl)amino)quinazolin-2-yl)amino)hexahydrocyclopentadieno[c]pyrrole-2(1H)-yl)propionitrile] |  |
| 1.89 | 0.34 | Cc1cc(Nc2nc(NC3CCN(S(=O)(=O)N4CC(C#N)C4)CC3)nc3sccc23)n[nH]1 [Embodiment 302, 1-((4-((4-((5-methyl-1H-pyrazol-3-yl)amino)thieno[2,3-d]pyrimidin-2-yl)amino)piperidin-1-yl)sulfonyl)azetindin-3-formonitrile] |  |
| 7.5 | 1.44 | Cc1cc(Nc2nc(NC3CCN(S(=O)(=O)N4CC(C#N)C4)CC3)nc3ccccc23)n[nH]1 [Embodiment 311, 1-((4-((4-((5-methyl-1H-pyrazol-3-yl)amino)quinazolin-2-yl)amino)piperidin-1-yl)sulfonyl)azetindin-3-formonitrile] |  |
| 13.1 | > 100 | Cc1cc(Nc2cc3ncccc3c(N[C@@H]3C[C@H]4CC[C@@H](C3)N4S(=O)(=O)c3cn[nH]c3)n2)n[nH]1 [Embodiment 315, N5-((3-exo)-8-((1H-pyrazol-4-yl)sulfonyl)-8-azabicyclo[3.2.1]oct-3-yl)-N7-(5-methyl-1H-pyrazol-3-yl)-1,6-diazanaphthalen-5,7-diamine] |  |

| Structure (SMILES) | IC50 [1] [nM] | IC50 [2] [nM] | IC50 [3] [nM] |
| --- | --- | --- | --- |
| CCc1cc(Nc2cc3ncccc3c(N[C@@H]3C[C@H]4CC[C@@H](C3)N4CCC#N)n2)n[nH]1 [Embodiment 11, 3-((3-exo)-3-((7-((5-ethyl-1H-pyrazol-3-yl)amino)-1,6-diazanaphthalen-5-yl)amino)-8-azabicyclo[3.2.1]oct-8-yl)propionitrile] | 0.3 | 9.13 | 4.77 |
| Cc1cc(Nc2nc(N[C@@H]3C[C@H]4CC[C@@H](C3)N4CCC#N)nc3scnc23)n[nH]1 [Embodiment 66, 3-((3-exo)-3-((7-((5-methyl-1H-pyrazol-3-yl)amino)thiazolo[5,4-d]pyrimidin-5-yl)amino)-8-azabicyclo[3.2.1]oct-8-yl)propionitrile] | 3.02 | 1.49 | 4.06 |
| Cc1cc(Nc2nc(N[C@@H]3C[C@H]4CC[C@@H](C3)N4CCC#N)c3cccn3n2)n[nH]1 [Embodiment 72, 3-((3-exo)-3-((2-((5-methyl-1H-pyrazol-3-yl)amino)pyrrolo[2,1-f][1,2,4]triazin-4-yl)amino)-8-azabicyclo[3.2.1]oct-8-yl)propionitrile] | 4.32 | 16 | 5.39 |
| Cc1cc(Nc2cc3nccnc3c(N[C@@H]3C[C@H]4CC[C@@H](C3)N4CCC#N)n2)n[nH]1 [Embodiment 88, 3-((3-exo)-3-((7-((5-methyl-1H-pyrazol-3-yl)amino)pyrido[3,4-b]pyrazin-5-yl)amino)-8-azabicyclo[3.2.1]oct-8-yl)propionitrile] | 1.75 | 3.53 | 3.1 |
| Cc1cc(Nc2cc3ncccc3c(N(C)[C@@H]3C[C@H]4CC[C@@H](C3)N4CCC#N)n2)n[nH]1 [Embodiment 111, 3-((3-exo)-3-(methyl(7-((5-methyl-1H-pyrazol-3-yl)amino)-1,6-diazanaphthalen-5-yl)amino)-8-azabicyclo[3.2.1]oct-8-yl)propionitrile] | 5.69 | 1.63 | 2.93 |
| N#CCCN1[C@@H]2CCC[C@H]1C[C@H](Nc1nc(Nc3ncc(CO)s3)cc3ncccc13)C2 [Embodiment 163, 3-((3-exo)-3-((7-((5-(hydroxymethyl)thiazol-2-yl)amino)-1,6-diazanaphthalen-5-yl)amino)-9-azabicyclo[3.3.1]non-9-yl)propionitrile] | 0.45 | 24.4 | 52.6 |
| O=C(C(F)F)N1[C@@H]2CC[C@H]1C[C@H](Nc1nc(Nc3ncc(CO)s3)cc3ncccc13)C2 [Embodiment 166, 2,2-difluoro-1-((3-exo)-3-((7-((5-(hydroxymethyl)thiazol-2-yl)amino)-1,6-diazanaphthalen-5-yl)amino)-8-azabicyclo[3.2.1]oct-8-yl)ethane-1-one] | 0.19 | 9.31 | 26.7 |
| OCc1cnc(Nc2cc3ncccc3c(N[C@@H]3C[C@H]4CC[C@@H](C3)N4CCF)n2)s1 [Embodiment 167, (2-((5-(((3-exo)-8-(2-fluoroethyl)-8-azabicyclo[3.2.1]oct-3-yl)amino)-1,6-diazanaphthalen-7-yl)amino)thiazol-5-yl)methanol] | 2.55 | 7.28 | 14.8 |
| Cc1cc(Nc2nc(N[C@@H]3C[C@H]4CC[C@@H](C3)N4CCC#N)nc3cccnc23)n[nH]1 [Embodiment 174, 3-((3-exo)-3-((4-((5-methyl-1H-pyrazol-3-yl)amino)pyrido[3,2-d]pyrimidin-2-yl)amino)-8-azabicyclo[3.2.1]oct-8-yl)propionitrile] | 2.73 | 1.88 | 0.42 |
